The source made the active and inactive calls.
How the values were obtained:
Prothrombin = Prothrombin (Bos taurus, UniProt P00735); experiment: thrombin protease inhibitors – biochemical, fluorescence polarization, uHTS hits, dose response (AID 602369); assay type: functional
[1] = target: Induced myeloid leukemia cell differentiation protein Mcl-1 (Homo sapiens, UniProt Q07820); assay type: functional
Large T antigen = Large T antigen (Simian virus 40, UniProt P03070); assay type: functional, Betapolyomavirus macacae;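 also: Confirmatory-stage PubChem screen for compounds that inhibit SV40 T antigen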
Genome polyprotein = Genome polyprotein (Hepatitis C virus, UniProt Q2Q167); experiment: disruption of hepatitis C core self-association – biochemical, TR-FRET, dose response (AID 2159); design: species or system Hepacivirus hominis;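 also: blocks dimerization of HCV core protein measured by TR-FRET between tagged core106 pairs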
[2] = protection from phage-mediated lysis, alamar blue read-out – E. coli UTI89, K1F phage, bacterial capsule biogenesis inhibitors (AID 488966); assay type: functional
[3] = target: 26S proteasome non-ATPase regulatory subunit 14 (Homo sapiens, UniProt O00487); experiment: inhibition of proteasome subunit RPN11 – biochemical, fluorescence polarization, uHTS hits, confirmation (AID 602368); assay type: functional
[4] = target: 72 kDa type IV collagenase (Homo sapiens, UniProt P08253); experiment: Dose Response validation of uHTS RPN11 inhibitor hits using a MMP-2 Fluorescence assay.; assay type: functional
[5] = target: Mitogen-activated protein kinase 13 (Homo sapiens, UniProt O15264); assay type: functional
[6] = target: Rho-associated protein kinase 2 (Homo sapiens, UniProt O75116); assay type: functional
[7] = alpha-synuclein stem-loop luciferase translation blockers – H4 neuroglioma cells, luminescence, confirmation (AID 1988); assay type: functional, cell-based
[8] = general mammalian cell viability loss – inhibitor set, cherry-pick, set 2, cytotoxicity control for miR-122 modulator project, dose response (AID 720697); assay type: functional, cell-based
[9] = reduced cellular PGC1a acetyl-lysine signal – cell-based, cherry-picked samples, dose response (AID 720514); assay type: functional;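 also: potency may reflect raised or lowered acetylation signal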
BJ [10] = experiment: growth inhibition of engineered Ras-driven BJ cells – cell-based, alamar blue fluorescence, cherrypicked samples, dose response (AID 2631); assay type: functional; conditions: Homo sapiens;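 also: confirmatory dose-response assay in RAS-dependent BJ fibroblasts engineered with TERT, LT and ST, with cytotoxicity read by fluorescence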
[11] = Luminescence Cell-Based Dose Response HTS to Identify Inhibitors of 5'UTR Stem-Loop Driven Prion Protein mRNA Translation in H4 Neuroglioblastoma Cells. [Related pubchem assays: 1827 (Project Summary), 1813 (Primary HTS)]; assay type: functional
[12] = luciferase reporter signal suppression in cells – H4 neuroglioma cells, luminescence, dose response (AID 1990); assay type: functional, cell-based
[13] = target: T1, High affinity choline transporter 1 (Homo sapiens, UniProt Q9GZV3); experiment: human choline transporter potentiators, potency – cell-based, 10-point CRC, membrane potential dye, dose response (AID 602376); assay type: functional
T1 sequence (Q9GZV3 whole entry): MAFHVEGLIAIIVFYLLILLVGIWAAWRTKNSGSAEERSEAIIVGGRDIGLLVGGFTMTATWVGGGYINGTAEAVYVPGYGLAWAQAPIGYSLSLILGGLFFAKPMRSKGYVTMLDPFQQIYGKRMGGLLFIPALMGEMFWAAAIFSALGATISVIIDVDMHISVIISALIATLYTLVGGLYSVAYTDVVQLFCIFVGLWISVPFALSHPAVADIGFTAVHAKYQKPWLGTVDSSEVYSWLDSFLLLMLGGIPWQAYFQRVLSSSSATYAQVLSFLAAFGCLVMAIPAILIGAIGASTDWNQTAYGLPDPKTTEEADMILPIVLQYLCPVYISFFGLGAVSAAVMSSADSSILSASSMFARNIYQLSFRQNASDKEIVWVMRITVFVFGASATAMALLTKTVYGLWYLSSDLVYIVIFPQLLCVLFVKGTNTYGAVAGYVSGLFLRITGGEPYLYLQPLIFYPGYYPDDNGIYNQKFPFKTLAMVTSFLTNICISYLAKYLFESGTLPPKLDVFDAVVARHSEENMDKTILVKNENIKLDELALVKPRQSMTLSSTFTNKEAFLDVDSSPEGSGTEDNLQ

BJ [14] = experiment: BJ-TERT fibroblast viability loss – cell-based, RAS-independent, luminescence, dose response (AID 1933); assay type: functional; conditions: Homo sapiens
[15] = activation of miR-122 Renilla sensor silencing – cell-based, Huh7 psiCHECK-miR122, Renilla luciferase, cherry-picked, dose response (AID 651956); assay type: functional;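 also: huh7 hepatoma cells stably carrying a psiCHECK-2 miR-122 sensor plasmid; renilla luciferase signal reporting endogenous miR-122 activity after 48 h compound exposure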
[16] = reduction of Shn3 3'UTR-driven luciferase in osteoblasts – cell-based, Clone20 osteoblasts, firefly luciferase, cherry-picked, dose response (AID 624132); assay type: functional;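 also: firefly luciferase luminescence from reporter carrying the Shn3 3'UTR in osteoblasts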
INS1 = experiment: INS-1E survival protection against cytokine death – cell-based, luminescence, retest, dose response (AID 449756); assay type: functional; conditions: Rattus norvegicus;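 also: cell death triggered by IL-1 beta plus TNF-alpha plus IFN-gamma mixture; protective hits raise ATP signal compared with cytokine alone wells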
[17] = Luminescence-based dose response cell-based high throughput screening assay for cytotoxic compounds using the IEC-6 intestinal epithelial cell line. [Related pubchem assays: 1858 (Summary AID.), 1825 (Counterscreen.), 1907 (Confirmation screen.)]; assay type: functional
BJ [18] = experiment: cells; assay type: functional, cell-based; conditions: Homo sapiens
BJ [19] = experiment: BJ-TERT-LT-ST fibroblast viability loss – cell-based, RAS-independent, luminescence, dose response (AID 1935); assay type: functional; conditions: Homo sapiens;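 also: BJ fibroblasts immortalized with TERT plus LT and ST oncogenes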
[20] = DRD fibroblast viability loss – cell-based, non-viral oncogenic, luminescence, dose response (AID 1934); assay type: functional; conditions: Homo sapiens
[21] = loss of viability in HepG2 cells – cell-based, CellTiter-Glo, cherry-picked, cytotoxicity control for Shn3 inhibitor project, dose response (AID 624134); assay type: functional
[22] = non-specific 3'UTR reporter inhibition in Clone20-Shn3RL – cell-based, Renilla luciferase, cherry-picked, counter-screen for Shn3 inhibitor project, dose response (AID 624133); assay type: functional
[23] = general mammalian cell viability loss – activator set, cherry-pick, cytotoxicity control for miR-122 modulator project, dose response (AID 720690); assay type: functional, cell-based;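 also: HEK293T human cells scored for general mammalian cytotoxicity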
Orexin receptor type 2 [24] = target: T2, Orexin receptor type 2 (Homo sapiens, UniProt O43614); experiment: Counterscreen assay for antagonists of the orexin 1 receptor (OX1R; HCRTR1): Homogeneous Time Resolved Fluorescence (HTRF)-based cell-based dose response assay for antagonists of the orexin 2 receptor (OX2R; HCRTR2), run by assay provider.; assay type: functional
[25] = target: T3, Orexin/Hypocretin receptor type 1 (Homo sapiens, UniProt O43613); experiment: (§1) Fluorescence-based cell-based high throughput dose response assay for antagonists of the orexin 1 receptor (OX1R; HCRTR1). [Related pubchem assays (depositor defined):AID434989, AID435008, AID463079, AID485270, AID492963, AID492964, AID492965, AID493232, AID504717, AID504718]; assay type: functional
CHO-K1 = experiment: (§2) Counterscreen for antagonists of the orexin 1 receptor (OX1R; HCRTR1): Homogeneous time resolved fluorescence (HTRF)-based cell-based dose response assay to identify antagonists of the parental CHO-K1 cell line. [Related pubchem assays (depositor defined):AID434989, AID435008, AID463079, AID485270, AID492963, AID492964, AID492965, AID493232, AID504699, AID504701]; assay type: functional; conditions: Cricetulus griseus
[26] = as §2, with “Fluorescence-based” for “Homogeneous time resolved fluorescence (HTRF)-based”, “cell-based high throughput” for “cell-based”, “CHO” for “CHO-K1”; assay type: functional
[27] = Luminescence Cell-Based Dose Retest to Confirm Inhibitors of Cancer Stem Cells. [Related pubchem assays (depositor defined):AID2717, AID2721]; assay type: functional; conditions: Homo sapiens
Orexin receptor type 2 [28] = target: T2, Orexin receptor type 2; experiment: Counterscreen assay for antagonists of the orexin 1 receptor (OX1R; HCRTR1): Fluorescence-based cell-based dose response assay for antagonists of the orexin 2 receptor (OX2R; HCRTR2), run by assay provider.; assay type: functional
[29] = target: T3, Orexin/Hypocretin receptor type 1; experiment: as §1, with “Homogeneous Time Resolved Fluorescence (HTRF)-based” for “Fluorescence-based”; assay type: functional
[30] = target: Melanin-concentrating hormone receptor 1 (Homo sapiens, UniProt Q99705); experiment: Late-stage fluorescence-based counterscreen for antagonists of the G-protein coupled receptor 7 (GPR7): cell-based dose response assay to identify antagonists of the melanin-concentrating hormone receptor 1 (MCHR1) Set 5.; assay type: functional
[31] = target: Neuropeptides B/W receptor type 1 (Homo sapiens, UniProt P48145); experiment: human NPBW1 receptor blockade, IC50 – cell-based, fluorescence, dose response, set 5, late-stage follow-up (AID 588566); assay type: functional
Neuropeptides B/W receptor type 1, sequence (P48145 whole entry): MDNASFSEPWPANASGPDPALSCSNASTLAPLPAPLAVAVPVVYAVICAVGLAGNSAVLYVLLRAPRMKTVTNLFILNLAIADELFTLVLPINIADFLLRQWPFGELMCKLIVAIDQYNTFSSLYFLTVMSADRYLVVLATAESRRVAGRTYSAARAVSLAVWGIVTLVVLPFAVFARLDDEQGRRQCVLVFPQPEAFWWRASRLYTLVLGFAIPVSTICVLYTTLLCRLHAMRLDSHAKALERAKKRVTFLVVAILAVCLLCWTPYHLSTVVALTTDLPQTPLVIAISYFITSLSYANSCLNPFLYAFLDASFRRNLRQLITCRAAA

T2 sequence (O43614 whole entry): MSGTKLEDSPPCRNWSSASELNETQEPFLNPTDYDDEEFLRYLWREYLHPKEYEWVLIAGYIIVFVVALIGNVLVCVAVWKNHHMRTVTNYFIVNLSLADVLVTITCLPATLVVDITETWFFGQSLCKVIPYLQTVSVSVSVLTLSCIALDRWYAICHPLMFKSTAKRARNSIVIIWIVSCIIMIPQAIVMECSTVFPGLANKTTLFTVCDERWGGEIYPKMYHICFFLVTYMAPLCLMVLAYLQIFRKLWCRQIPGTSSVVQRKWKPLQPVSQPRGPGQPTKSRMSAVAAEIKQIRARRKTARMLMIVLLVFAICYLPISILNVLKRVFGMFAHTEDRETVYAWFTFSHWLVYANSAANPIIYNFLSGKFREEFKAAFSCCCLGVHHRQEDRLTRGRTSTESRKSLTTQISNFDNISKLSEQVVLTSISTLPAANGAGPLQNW
T3 sequence (O43613 whole entry): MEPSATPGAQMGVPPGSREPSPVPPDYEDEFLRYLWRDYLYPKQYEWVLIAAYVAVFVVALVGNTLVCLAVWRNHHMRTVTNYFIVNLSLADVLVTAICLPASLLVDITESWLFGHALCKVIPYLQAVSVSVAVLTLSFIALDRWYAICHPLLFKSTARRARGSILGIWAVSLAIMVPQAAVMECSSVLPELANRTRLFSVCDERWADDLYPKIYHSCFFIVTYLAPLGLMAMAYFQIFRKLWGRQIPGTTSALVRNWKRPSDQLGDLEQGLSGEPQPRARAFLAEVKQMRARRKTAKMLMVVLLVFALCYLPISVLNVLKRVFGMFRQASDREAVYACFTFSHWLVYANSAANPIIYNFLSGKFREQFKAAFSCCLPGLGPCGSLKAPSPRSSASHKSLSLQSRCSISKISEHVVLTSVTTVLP
Genome polyprotein, sequence (Q2Q167 whole entry): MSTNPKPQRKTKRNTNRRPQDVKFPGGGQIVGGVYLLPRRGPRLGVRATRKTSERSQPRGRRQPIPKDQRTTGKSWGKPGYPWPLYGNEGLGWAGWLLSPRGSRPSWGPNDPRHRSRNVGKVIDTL
Rho-associated protein kinase 2, sequence (O75116 whole entry): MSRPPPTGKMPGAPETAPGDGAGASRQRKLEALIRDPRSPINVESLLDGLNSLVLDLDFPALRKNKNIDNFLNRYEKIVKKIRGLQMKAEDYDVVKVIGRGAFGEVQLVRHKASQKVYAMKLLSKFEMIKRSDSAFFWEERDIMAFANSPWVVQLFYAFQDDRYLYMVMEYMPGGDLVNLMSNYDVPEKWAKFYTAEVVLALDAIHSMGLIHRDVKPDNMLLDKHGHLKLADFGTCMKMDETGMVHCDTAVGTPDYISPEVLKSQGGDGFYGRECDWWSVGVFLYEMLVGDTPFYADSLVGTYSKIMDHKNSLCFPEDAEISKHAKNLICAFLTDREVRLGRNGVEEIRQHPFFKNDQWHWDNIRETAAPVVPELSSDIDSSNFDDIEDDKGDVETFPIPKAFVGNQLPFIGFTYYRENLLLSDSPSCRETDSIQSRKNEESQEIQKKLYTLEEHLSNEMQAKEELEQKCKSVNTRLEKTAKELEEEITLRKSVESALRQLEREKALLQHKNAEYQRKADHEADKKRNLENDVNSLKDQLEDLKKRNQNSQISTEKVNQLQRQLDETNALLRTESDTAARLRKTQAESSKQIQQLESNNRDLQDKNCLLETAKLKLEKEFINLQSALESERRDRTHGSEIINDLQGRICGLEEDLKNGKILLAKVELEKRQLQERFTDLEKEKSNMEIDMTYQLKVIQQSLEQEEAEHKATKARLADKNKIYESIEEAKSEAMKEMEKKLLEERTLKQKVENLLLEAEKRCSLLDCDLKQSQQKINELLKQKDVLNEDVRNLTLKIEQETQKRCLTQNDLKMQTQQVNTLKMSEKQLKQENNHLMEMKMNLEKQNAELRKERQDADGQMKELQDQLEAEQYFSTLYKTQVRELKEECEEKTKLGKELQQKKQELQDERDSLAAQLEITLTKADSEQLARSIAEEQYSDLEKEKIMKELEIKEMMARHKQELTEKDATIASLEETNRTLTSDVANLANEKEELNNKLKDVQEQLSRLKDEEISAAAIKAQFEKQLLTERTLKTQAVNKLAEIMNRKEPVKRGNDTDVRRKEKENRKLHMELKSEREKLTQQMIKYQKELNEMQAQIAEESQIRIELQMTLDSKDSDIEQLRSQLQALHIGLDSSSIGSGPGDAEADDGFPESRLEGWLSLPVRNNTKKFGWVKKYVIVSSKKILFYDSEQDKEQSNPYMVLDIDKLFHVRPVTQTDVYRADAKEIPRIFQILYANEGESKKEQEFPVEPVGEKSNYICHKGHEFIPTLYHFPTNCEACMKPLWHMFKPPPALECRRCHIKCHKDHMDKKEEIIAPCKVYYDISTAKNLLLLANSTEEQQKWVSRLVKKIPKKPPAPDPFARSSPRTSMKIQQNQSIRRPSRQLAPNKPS
Mitogen-activated protein kinase 13, sequence (O15264 whole entry): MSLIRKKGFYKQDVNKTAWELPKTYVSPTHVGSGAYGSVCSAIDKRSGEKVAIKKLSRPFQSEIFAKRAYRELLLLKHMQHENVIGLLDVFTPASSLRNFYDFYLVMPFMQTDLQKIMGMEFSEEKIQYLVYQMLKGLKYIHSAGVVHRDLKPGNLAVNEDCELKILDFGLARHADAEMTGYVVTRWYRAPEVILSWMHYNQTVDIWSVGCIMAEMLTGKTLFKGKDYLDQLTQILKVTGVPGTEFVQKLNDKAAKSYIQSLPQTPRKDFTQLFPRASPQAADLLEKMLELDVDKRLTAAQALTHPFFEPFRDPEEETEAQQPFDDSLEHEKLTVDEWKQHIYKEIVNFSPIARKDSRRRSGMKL
72 kDa type IV collagenase, sequence (P08253 whole entry): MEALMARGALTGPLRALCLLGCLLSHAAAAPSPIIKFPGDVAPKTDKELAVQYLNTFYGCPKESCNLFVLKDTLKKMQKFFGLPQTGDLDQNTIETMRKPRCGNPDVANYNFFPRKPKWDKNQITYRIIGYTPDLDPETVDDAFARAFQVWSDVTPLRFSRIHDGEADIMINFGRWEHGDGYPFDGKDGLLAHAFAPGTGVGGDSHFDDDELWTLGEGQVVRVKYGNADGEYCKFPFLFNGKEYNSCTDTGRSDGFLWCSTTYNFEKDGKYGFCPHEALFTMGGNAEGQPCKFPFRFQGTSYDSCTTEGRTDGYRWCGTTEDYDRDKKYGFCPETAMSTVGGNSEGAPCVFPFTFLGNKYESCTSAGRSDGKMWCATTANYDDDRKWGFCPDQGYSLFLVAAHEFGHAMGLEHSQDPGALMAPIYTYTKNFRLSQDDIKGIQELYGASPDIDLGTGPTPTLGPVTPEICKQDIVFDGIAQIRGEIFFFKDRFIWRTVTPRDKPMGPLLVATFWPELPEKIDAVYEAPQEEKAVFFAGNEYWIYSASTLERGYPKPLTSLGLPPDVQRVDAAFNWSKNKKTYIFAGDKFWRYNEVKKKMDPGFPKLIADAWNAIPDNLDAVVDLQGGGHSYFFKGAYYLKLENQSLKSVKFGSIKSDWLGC
Melanin-concentrating hormone receptor 1, sequence (Q99705 whole entry): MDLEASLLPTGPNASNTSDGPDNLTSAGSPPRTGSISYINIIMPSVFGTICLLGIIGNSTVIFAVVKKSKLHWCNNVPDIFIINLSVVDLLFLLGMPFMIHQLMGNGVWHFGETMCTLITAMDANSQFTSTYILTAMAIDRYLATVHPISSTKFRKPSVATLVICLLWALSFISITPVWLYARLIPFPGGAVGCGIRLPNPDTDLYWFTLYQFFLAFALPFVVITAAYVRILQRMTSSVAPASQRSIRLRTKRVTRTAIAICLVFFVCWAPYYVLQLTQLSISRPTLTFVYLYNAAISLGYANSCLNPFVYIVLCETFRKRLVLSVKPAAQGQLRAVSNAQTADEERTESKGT
Induced myeloid leukemia cell differentiation protein Mcl-1, sequence (Q07820 whole entry): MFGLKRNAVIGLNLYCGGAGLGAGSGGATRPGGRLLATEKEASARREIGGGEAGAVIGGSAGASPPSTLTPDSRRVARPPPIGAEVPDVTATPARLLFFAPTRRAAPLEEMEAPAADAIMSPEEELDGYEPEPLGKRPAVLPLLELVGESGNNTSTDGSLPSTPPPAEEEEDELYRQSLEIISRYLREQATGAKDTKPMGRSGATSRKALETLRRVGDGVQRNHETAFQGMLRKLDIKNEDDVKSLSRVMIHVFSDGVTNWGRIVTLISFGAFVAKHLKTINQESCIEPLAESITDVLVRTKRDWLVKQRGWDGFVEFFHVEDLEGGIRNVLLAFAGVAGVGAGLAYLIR
26S proteasome non-ATPase regulatory subunit 14, sequence (O00487 whole entry): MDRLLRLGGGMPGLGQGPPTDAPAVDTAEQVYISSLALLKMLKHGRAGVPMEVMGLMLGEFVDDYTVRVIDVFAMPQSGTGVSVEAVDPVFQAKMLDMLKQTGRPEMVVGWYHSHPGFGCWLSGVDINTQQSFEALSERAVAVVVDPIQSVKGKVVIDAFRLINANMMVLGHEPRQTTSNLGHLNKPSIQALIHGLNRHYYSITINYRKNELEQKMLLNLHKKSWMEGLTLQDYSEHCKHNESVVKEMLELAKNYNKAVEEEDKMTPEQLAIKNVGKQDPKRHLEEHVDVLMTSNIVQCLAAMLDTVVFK

## CS(=O)(=O)c1ccc2c(c1)SC1=NC(=O)/C(=C/c3ccco3)C(=N)N12
Prothrombin
  IC50: 21.6 µM (active)
[1]
  IC50: 2.84 µM (active)
Large T antigen
  IC50: > 100 µM (active)
Genome polyprotein
  IC50: > 49.8 µM (not active)
[2]
  IC50: > 150 µM (active)
[3]
  IC50: 14.4 µM (active)
[4]
  IC50: 21.2 µM (active)

## O=C(NC(CO)Cc1ccccc1)c1ccc(-c2ccncc2)cc1 (stereo unspecified)
[5]
  Ki: > 7.94 µM (inactive)
[6]
  Ki: 0.0398 µM (active)

## Cc1ccccc1OCC(O)CNC1CCC(NCC(O)COc2ccccc2C)CC1 (stereo unspecified)
[7]
  EC50: 8.49 µM (active)
[8]
  AC50: 6.41 µM (active)
[9]
  AC50: 6.68 µM (active)
BJ [10]
  EC50: 0.582 µM (inconclusive)
[11]
  EC50: 8.66 µM (active)
[12]
  EC50: > 120 µM (not active)
[13]
  EC50: 19.3 µM (active)
BJ [14]
  EC50: 2.62 µM (inconclusive)
[15]
  AC50: 10.4 µM (active)
[16]
  AC50: 4.5 µM (active)
INS1
  AC50: 5.79 µM (active)
[17]
  IC50: 2.61 µM (active)
BJ [18]
  EC50: 5.55 µM (active)
BJ [19]
  EC50: 2.8 µM (inconclusive)
[20]
  EC50: 3.77 µM (active)
[21]
  AC50: 1.89 µM (active)
[22]
  AC50: 11.8 µM (active)
[23]
  AC50: 9.9 µM (active)

## C=CCn1c2ccccc2c(=O)c2cc(C#Cc3cc(OC)cc(OC)c3)ccc21
Orexin receptor type 2 [24]
  IC50: > 50 µM (inactive)
[25]
  IC50: 7.69 µM (active)
CHO-K1
  IC50: > 66.2 µM (inactive)
[26]
  IC50: > 49.8 µM (inactive)
[27]
  AC50: 1.94 µM (active)
Orexin receptor type 2 [28]
  IC50: 11 µM (inactive)
[29]
  IC50: 1.19 µM (active)

## O=c1c(Oc2ccc(C(F)(F)F)cc2)c(Cl)cnn1Cc1cccc2ccccc12
[30]
  IC50: > 20 µM (inactive)
[31]
  IC50: > 20 µM (inactive)
